Measured values published in patent publication US8933132B2, “Tricyclic substituted benzenesulfonamide piperazine derivatives as CAV2.2 calcium channel blockers” (Convergence Pharmaceuticals Limited, priority 2011, dated 2015).

Target: T1, hCav2.2 (Homo sapiens, UniProt Q00975)
T1 construct: expressed in transfected cells; plasmids pCIN5-hCav2.2, pCIH-hCav β3, pCIP-α2δ1
Assay: hCav2.2 assay (IonWorks planar array electrophysiology, stable HEK293 cell line)
Assay type: cell-based
Details: inhibition of current elicited by the 1st depolarising pulse by 50%; HEK293 cells expressing human Cav2.2 α1B/β3/α2δ1; read-out: tonic pIC50 (converted)
Procedure: Compounds as defined in the first to third aspects may be tested for in vitro biological activity in the hCav2.2 assay in accordance with the following studies:
Stable cell lines expressing the human Cav2.2 α (α1B) subunit, along with the human β3 and α2δ1 auxiliary subunits were created following sequential transfection and selection of human embryonic kidney (HEK293) cells. HEK293 cells were cultured in Dulbecco's modified Eagles media/F12 media (Invitrogen, Cat #041-95750V) containing 10% fetal bovine serum, with added L-glutamine (2 mM; Invitrogen, Cat #25030-024) and non-essential amino acids (5%; Invitrogen, Cat #11140-035). Initially HEK293 cells were transfected with two plasmid vectors for expression of the hCav2.2 α subunit (pCIN5-hCav2.2 which carries a neomycin resistance marker) and the hCav β3 subunit (pCIH-hCav β3 which carries a hygromycin resistance marker). Clonal cell lines were isolated following selection in media supplemented with 0.4 mg ml^−1 Geneticin G418 (Invitrogen, Cat #10131-027) and 0.1 mg ml^−1 hygromycin (Invitrogen, Cat #10687-010). These clonal cell lines were assessed for Cav2.2 α/β3-mediated current expression using the IonWorks planar array electrophysiology technology (described below). A clonal line was identified that gave a reasonable level of functional Cav2.2 α/β3 current expression. This cell line was transfected with a plasmid vector for expression of the human α2δ1 subunit (pCIP-α2δ1 which carries a puromycin resistance marker) and clonal cell lines isolated following selection in media containing 0.62 μg ml^−1 puromycin (Sigma, Cat # P-7255), in addition to 0.4 mg ml^−1 Geneticin G418 and 0.1 mg ml^−1 hygromycin. […]
Currents were recorded at room temperature (21-23° C.) using the IonWorks planar array electrophysiology technology (Molecular Devices Corp.). […] In all experiments, the test pulse protocol was performed in the absence (pre-read) and presence (post-read) of a compound. Pre- and post-reads were separated by a compound addition followed by a 3-3.5 min incubation. […]

T1 sequence (Q00975 whole entry): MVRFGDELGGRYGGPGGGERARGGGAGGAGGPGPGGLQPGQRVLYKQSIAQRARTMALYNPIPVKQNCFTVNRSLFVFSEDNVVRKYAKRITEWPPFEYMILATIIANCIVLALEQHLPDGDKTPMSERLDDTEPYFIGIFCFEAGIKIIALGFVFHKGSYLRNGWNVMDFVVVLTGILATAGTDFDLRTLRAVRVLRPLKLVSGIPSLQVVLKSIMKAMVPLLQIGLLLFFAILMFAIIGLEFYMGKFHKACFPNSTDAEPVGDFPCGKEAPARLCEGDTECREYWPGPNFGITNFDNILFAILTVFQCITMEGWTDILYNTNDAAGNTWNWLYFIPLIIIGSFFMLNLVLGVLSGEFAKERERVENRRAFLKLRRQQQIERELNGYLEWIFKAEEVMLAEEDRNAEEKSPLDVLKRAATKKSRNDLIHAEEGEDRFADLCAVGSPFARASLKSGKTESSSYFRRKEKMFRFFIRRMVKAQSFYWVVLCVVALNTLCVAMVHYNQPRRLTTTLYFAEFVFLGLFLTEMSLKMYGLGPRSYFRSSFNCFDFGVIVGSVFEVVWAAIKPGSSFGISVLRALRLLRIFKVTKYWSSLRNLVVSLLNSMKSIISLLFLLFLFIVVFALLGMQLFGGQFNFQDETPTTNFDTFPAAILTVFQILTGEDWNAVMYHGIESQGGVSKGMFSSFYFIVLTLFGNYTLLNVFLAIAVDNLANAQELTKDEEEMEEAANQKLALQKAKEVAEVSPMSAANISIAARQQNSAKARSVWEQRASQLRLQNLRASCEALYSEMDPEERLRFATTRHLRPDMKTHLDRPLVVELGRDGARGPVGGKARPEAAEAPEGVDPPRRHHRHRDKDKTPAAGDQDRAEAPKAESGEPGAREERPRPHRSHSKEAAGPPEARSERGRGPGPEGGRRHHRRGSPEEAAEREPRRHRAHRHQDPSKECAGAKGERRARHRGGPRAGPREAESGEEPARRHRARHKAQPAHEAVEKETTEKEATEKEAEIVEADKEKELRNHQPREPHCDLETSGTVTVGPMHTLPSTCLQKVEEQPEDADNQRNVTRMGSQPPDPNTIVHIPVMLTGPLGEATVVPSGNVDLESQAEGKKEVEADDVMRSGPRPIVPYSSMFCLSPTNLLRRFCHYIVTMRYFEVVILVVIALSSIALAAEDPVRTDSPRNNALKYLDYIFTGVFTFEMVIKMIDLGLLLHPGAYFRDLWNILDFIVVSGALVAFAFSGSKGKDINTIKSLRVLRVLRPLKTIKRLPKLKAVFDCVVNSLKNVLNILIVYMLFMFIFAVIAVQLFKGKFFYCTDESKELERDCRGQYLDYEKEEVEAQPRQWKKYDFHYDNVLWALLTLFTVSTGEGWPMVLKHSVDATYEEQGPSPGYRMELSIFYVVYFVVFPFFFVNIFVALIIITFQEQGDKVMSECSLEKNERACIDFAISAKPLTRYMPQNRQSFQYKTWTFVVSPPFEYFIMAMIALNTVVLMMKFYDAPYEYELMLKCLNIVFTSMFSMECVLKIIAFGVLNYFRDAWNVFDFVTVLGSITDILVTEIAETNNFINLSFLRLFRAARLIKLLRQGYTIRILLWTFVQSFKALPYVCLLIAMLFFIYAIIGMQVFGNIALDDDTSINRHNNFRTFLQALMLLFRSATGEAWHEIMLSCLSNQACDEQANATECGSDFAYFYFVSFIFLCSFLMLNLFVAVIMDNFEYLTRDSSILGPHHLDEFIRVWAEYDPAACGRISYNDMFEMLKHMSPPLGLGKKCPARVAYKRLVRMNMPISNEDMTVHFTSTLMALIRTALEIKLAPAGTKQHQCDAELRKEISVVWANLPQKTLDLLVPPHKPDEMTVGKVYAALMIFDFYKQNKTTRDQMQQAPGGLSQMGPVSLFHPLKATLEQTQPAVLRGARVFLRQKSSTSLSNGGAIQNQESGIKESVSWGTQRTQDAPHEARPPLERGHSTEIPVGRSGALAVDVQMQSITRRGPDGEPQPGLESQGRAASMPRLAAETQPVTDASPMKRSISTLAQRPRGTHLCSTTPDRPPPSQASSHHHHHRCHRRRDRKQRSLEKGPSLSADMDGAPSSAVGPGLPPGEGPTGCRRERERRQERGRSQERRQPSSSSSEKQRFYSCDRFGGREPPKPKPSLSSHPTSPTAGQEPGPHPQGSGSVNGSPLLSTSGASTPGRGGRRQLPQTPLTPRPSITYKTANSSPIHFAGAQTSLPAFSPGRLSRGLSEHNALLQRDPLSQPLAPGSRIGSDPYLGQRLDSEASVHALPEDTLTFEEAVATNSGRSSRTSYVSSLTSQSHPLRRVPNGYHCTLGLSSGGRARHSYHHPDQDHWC

SMILES	IC50
Cc1cc(C(F)(F)F)ccc1S(=O)(=O)N1CCN2C(=O)c3cccnc3C2C1 (single isomer, unassigned) [24/25 (slower running enantiomer)]	≤ 31.6 µM
Cc1ccc2c(n1)C1CN(S(=O)(=O)c3ccc(OC(C)C)cc3)CCN1C2=O (stereo not drawn) [Compound 2, 2-Methyl-9-({4-[(1-methylethyl)oxy]phenyl}sulfonyl)-8,9,10,10a-tetrahydropyrido[2′,3′:3,4]pyrrolo-[1,2-a]pyrazin-5(7H)-one]	100 µM
Cc1ccc2c(n1)C1CN(S(=O)(=O)c3ccc(C(F)(F)F)cc3C)CCN1C2=O (stereo not drawn) [Compound 18, 2-Methyl-9-{[2-methyl-4-(trifluoromethyl)phenyl]sulfonyl}-8,9,10,10a-tetrahydropyrido[2′,3′:3,4]pyrrolo-[1,2-a]pyrazin-5(7H)-one]	≤ 31.6 µM
